In paper PMC10610188, “Structure–Activity Relationship Studies of Chalcones and Diarylpentanoids with Antitumor Activity: Potency and Selectivity Optimization” (Pharmaceuticals, 2023):
Where two headings read alike, the source gives them in different places.

What was measured:
HCT116 p53^+/+ cells [1] = conditions: SRB assay, cited from earlier work
HFF-1 cells = assay: SRB growth inhibition assay in normal fibroblasts HFF-1; format: cell-based, human; conditions: for SI2: Selective index 2: GI50 of HFF-1/GI50 of HCT116 p53^+/+; for GI50: Homo sapiens, HFF-1, SRB assay, 48 h of treatment
Protocol: (§1) To study the in vitro antitumor potential of chalcone CM-M345 (1) and diarylpentanoid BP-C4 (2) analogues, the sulforhodamine B (SRB) assay was used to evaluate the antiproliferative activity in human colorectal HCT116 cancer cells. To assess their cytotoxicity toward normal cells, the antiproliferative effect of these compounds was also tested in human fibroblasts HFF-1 cells. In order to confirm if inhibition of proliferation was associated with p53 activation in HCT116 p53^+/+ cells, all compounds were also tested in HCT116 cells in which p53 was knocked out (HCT116 p53^−/−) and the selective index was calculated and compared to the compounds CM-M345 (1) and BP-C4 (2), for which p53-dependent antiproliferative activity was previously reported by our research group (Table 1).
(§2) The colorectal adenocarcinoma HCT116 cells (HCT116 p53^+/+) and its p53-null isogenic derivative (HCT116 p53^−/−) were given by Prof. Vogelstein (The Johns Hopkins Kimmel Cancer Center, Baltimore, USA); the normal human fibroblasts HFF-1 cell lines were from ATCC (Rockville, MD, USA). Human cells were cultured in RPMI-1640 with UltraGlutamine (Lonza, VWR, Portugal) with 10% FBS (Gibco, Alfagene, Portugal) at 37 °C with 5% CO2. The SH-SY5Y cells were cultured in DMEM/F-12 (Lonza) and 10% FBS and 2mM L-glutamine (Gibco). The cells were incubated at 37 °C in a humidified atmosphere of 5% CO2. Mycoplasma was routinely checked using the MycoAlert™ PLUS kit (Lonza). […]

HCT116 p53^−/− cells [2] = conditions: SRB assay; ref Pereira et al. [23]; cited from earlier work
HCT116 p53^−/− cells [3] = assay: SRB growth inhibition assay in HCT116 p53-/- cells; format: cell-based, human; conditions: for SI1: Selective index 1: GI50 of HCT116 p53^−/−/GI50 of HCT116 p53^+/+; for GI50: Homo sapiens, HCT-116, SRB assay, 48 h of treatment
Protocol: as §1, §2

HCT116 p53^+/+ cells [4] = assay: SRB growth inhibition assay in HCT116 p53+/+ cells; format: cell-based, human; conditions: for GI50: SRB assay, 48 h of treatment
Protocol: as §1, §2

p53–MDM2 interaction = molecular target: T1, p53–MDM2 interaction (Homo sapiens, UniProt Q00987); assay: Yeast-based p53-MDM2 interaction screening assay; format: cell-based; conditions: 10 μM
T1 construct: expressed in transfected cells; host or cells: Saccharomyces cerevisiae strain CG379
T1 sequence (Q00987 whole entry): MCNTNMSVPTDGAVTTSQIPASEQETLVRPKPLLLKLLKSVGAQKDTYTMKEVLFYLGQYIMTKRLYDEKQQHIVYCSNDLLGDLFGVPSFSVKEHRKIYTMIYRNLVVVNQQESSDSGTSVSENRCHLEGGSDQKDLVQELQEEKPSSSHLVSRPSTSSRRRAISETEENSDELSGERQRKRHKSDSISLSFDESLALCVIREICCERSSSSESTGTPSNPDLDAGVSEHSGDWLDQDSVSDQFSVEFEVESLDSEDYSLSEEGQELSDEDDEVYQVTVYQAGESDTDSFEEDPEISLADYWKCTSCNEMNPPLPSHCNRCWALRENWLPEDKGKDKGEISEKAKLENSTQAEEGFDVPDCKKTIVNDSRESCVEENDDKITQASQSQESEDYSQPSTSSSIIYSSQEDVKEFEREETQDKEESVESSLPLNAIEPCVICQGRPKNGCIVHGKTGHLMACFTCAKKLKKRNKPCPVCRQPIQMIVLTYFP
From the text: The possible activation of p53 by inhibiting its interaction with MDM2 was investigated using the yeast-based screening assay previously developed by our group. In this assay, compounds that inhibit p53–MDM2 interaction will re-establish the p53-induced growth-inhibitory effect, which was abolished by MDM2 [43].
In the yeast targeted screening assay, Saccharomyces cerevisiae (strain CG379) expressing human wt p53 alone and combined with human MDM2 were used as described. For the expression of human proteins (routinely grown in minimal selective medium), the cells were diluted to 0.05 OD600 in the selective induction medium with 2% (w/w) galactose, 1% (w/w) raffinose, 0.7% (w/w) yeast nitrogen base without amino acids from Difco (Quilaban, Sintra, Portugal), and all the amino acids necessary for yeast growth ([…]) except leucine and tryptophan. The yeast cells were incubated at 30 °C under continuous orbital shaking (200 rpm) with […] compounds or 0.1% DMSO only for over 42 h. Yeast growth was analyzed by counting the number of colony-forming units (CFUs) after 2 days of incubation at 30 °C on Sabouraud Dextrose Agar from Liofilchem (Frilabo, Porto, Portugal).

p53 = assay: Western blot, p53 protein levels; format: cell-based, human; conditions: 5 µM, 48 h, HCT116 p53^+/+
Protocol: (§3) For Western blotting, 1.5 × 10^5 cells (per well) of HCT116 p53^+/+ cells were seeded in six-well plates and allowed to adhere for 24 h, followed by treatment with 5 μM 17 for 48 h. Protein extracts obtained from the human cancer cells were quantified using the Pierce™ BCA Protein Assay Kit (Thermo Scientific, Taper, Sintra, Portugal), according to the manufacturer’s instructions. The proteins were then run in SDS-PAGE and transferred to a Whatman nitrocellulose membrane from Protan (VWR, Carnaxide, Portugal). Proteins were detected using the primary antibodies anti-p53 (Santa Cruz Biotechnology, Dallas, TX, USA, SC-126, 1:5000), anti-BCL-2 (Santa Cruz Biotechnology, SC-7382, 1:200), anti-PARP (Cell Signaling, #9542, 1:1000), and anti-GAPDH (Santa Cruz Biotechnology, SC-32233, 1:10,000), followed by HRP-conjugated secondary antibodies anti-mouse (Santa Cruz Biotechnology, SC-2005, 1:2500) and anti-rabbit (Santa Cruz Biotechnology, SC-2006, 1:2500). GAPDH was used as a loading control. The signal was detected with an ECL Amersham kit from GE Healthcare (VWR) and the ChemiDoc™ MP Imaging System (Bio-Rad, Amadora, Portugal).

Bcl-2 = assay: Western blot, Bcl-2 protein levels; format: cell-based, human; conditions: 5 µM, 48 h, HCT116 p53^+/+
Protocol: as §3

PARP = assay: Western blot, PARP cleavage; format: cell-based, human; conditions: 5 µM, 48 h, HCT116 p53^+/+
Protocol: as §3

HCT116 p53^+/+ cells [5] = assay: Annexin V-FITC apoptosis analysis by flow cytometry; format: cell-based, human; conditions: 5 µM, 48 h
Protocol: The 1.5 × 10^5 HCT116 p53^+/+ cells/well were seeded in 6-well plates and then treated with 5 µM 17 for 48 h. For the apoptosis analysis, an Annexin V-FITC Apoptosis Detection Kit I (BD Biosciences, Franklin Lakes, NJ, USA) was used following the manufacturer’s instructions. An AccuriTM C6 flow cytometer and the BD Accuri C6 software were used for data acquisition.

Compound | SI2: Selective index 2 (HFF-1 cells) | GI50 (HFF-1 cells) | SI1: Selective index 1 (HCT116 p53^−/− cells [3]) | GI50 (HCT116 p53^−/− cells [3]) | GI50 (HCT116 p53^+/+ cells [4]; Homo sapiens, HCT-116, 48 h) | melting point | other results
COc1cc(/C=C2\COC/C(=C\c3cc(OC)c(OC)c(OC)c3)C2=O)cc(OC)c1OC [BP-M345 (1), reference compound] | – | – | – | – | – | – | GI50 (HCT116 p53^+/+ cells [1]; ref Moreira et al. [21]): 0.17 µM
CCCc1c(OC)ccc(C(=O)/C=C/c2cc(OC)c(OC)c(OC)c2)c1O [CM-M345 (1), (E)-1-(2-hydroxy-4-methoxy-3-propylphenyl)-3-(3,4,5-trimethoxyphenyl)prop-2-en-1-one] | 2.96 | 7.7 ± 0.8 µM | – | – | – | – | GI50 (HCT116 p53^+/+ cells [1]; ref Pereira et al. [23]): 2.6 ± 0.2 µM; GI50 (HCT116 p53^−/− cells [2]): 3.4 ± 0.1 µM
O=C1/C(=C/c2ccc(Cl)cc2)CSc2ccccc21 [Compound 16] | 5.25 | 3.62 ± 0.99 µM | 11.5 | 7.95 ± 0.85 µM | 0.69 ± 0.07 µM | 139 to 141 °C | selectivity for p53 compared to BP-C4 (2) (HCT116 p53^−/− cells [3]; HCT116 p53^+/+ over p53^−/−): seven-fold increased; antiproliferative activity compared to BP-C4 (2) (HCT116 p53^+/+ cells [4]; HCT116 p53^+/+): nine-fold higher; effect on growth of control yeast (vectors) or yeast expressing p53 only (p53–MDM2 interaction): without interfering with the growth; inhibition of the p53–MDM2 interaction in yeast co-expressing p53 and MDM2 (p53–MDM2 interaction): behaved as a potential inhibitor of the p53-MDM2 interaction
O=C(/C=C/c1ccc(Cl)cc1)/C=C/c1ccc(Cl)cc1 [Compound 17] | 12.43 | 27.1 ± 1.25 µM | 1.63 | 3.55 ± 0.05 µM | 2.8 µM | – | p53 protein levels (Western blot) (p53): did not interfere with the p53 protein levels; Bcl-2 protein levels (Western blot) (Bcl-2): depletion of the protein levels of the anti-apoptotic protein Bcl-2; GI50 value in HFF-1 cells relative to HCT116 p53^+/+ cells (fold higher) (HFF-1 cells): 12 fold; GI50 (HCT116 p53^+/+ cells [4]): 2.18 ± 0.59 µM; PARP cleavage (Western blot) (PARP): PARP cleavage; apoptosis (annexin-positive cells) (HCT116 p53^+/+ cells [5]): induced apoptosis
CCCc1c(OC)ccc2c(=O)cc(-c3cc(OC)c(OC)c(OC)c3)oc12 [Compound 27, 7-methoxy-8-propyl-2-(3,4,5-trimethoxyphenyl)-4H-chromen-4-one] | – | > 30 µM | – | > 30 µM | > 30 µM | 153 to 155 °C | –
CCCc1c(OC)ccc(C(O)/C=C/c2cc(OC)c(OC)c(OC)c2)c1O (stereo not shown) [Compound 28, (E)-6-(1-hydroxy-3-(3,4,5-trimethoxyphenyl)allyl)-3-methoxy-2-propylphenol] | 1.13 | 17 ± 4.4 µM | 0.80 | 12 ± 5 µM | 15 ± 1.73 µM | 219 to 222 °C | –
OC1/C(=C/c2ccc(Cl)cc2)COC/C1=C\c1ccc(Cl)cc1 (stereo not shown) [Compound 30, 3,5-bis((E)-4-chlorobenzylidene)tetrahydro-2H-pyran-4-ol] | – | > 30 µM | – | > 30 µM | > 30 µM | 219 to 222 °C | –
O=C1C(Cc2ccc(Cl)cc2)COCC1Cc1ccc(Cl)cc1 (stereo not shown) [Compound 31, 3,5-bis(4-chlorobenzyl)tetrahydro-4H-pyran-4-one] | – | > 30 µM | – | > 30 µM | > 30 µM | 145 to 146 °C | –
CCCc1c(OC)ccc(C(=O)/C=C/c2ccc(Cl)cc2)c1O [Compound 32] | 1.17 | 11.1 ± 0.12 µM | 1 | 9.5 ± 0.1 µM | 9.5 ± 0.5 µM | 109 to 112 °C | –
CCCc1c(OC)ccc(C(=O)/C=C/c2ccc(F)cc2)c1O [Compound 33, (E)-3-(4-fluorophenyl)-1-(2-hydroxy-4-methoxy-3-propylphenyl)prop-2-en-1-one] | 0.89 | 8.23 ± 0.08 µM | 0.77 | 7.2 ± 0.32 µM | 9.25 ± 0.75 µM | 115 to 117 °C | –
CCCc1c(OC)ccc(C(=O)/C=C/c2ccc(Br)cc2)c1O [Compound 34, (E)-3-(4-bromophenyl)-1-(2-hydroxy-4-methoxy-3-propylphenyl)prop-2-en-1-one] | 0.80 | 14.9 ± 0.232 µM | 0.62 | 11.5 ± 0.145 µM | 18.5 ± 0.35 µM | 115 to 116 °C | –
CCCc1c(OC)ccc(C(=O)/C=C/c2ccc(N3CCOCC3)cc2)c1O [Compound 36, (E)-1-(2-hydroxy-4-methoxy-3-propylphenyl)-3-(4-morpholinophenyl)prop-2-en-1-one] | 3.08 | 15.7 ± 2.8 µM | – | 14.3 ± 1.1 µM | 5.1 to 10.7 µM | 129 to 131 °C | GI50 (HCT116 p53^+/+ cells [4]): 5.1 ± 0.32 µM; inhibition of the p53–MDM2 interaction in yeast co-expressing p53 and MDM2 (p53–MDM2 interaction): seems not to be related to the inhibition of p53–MDM2 interaction
CC(C)=CCOc1ccc(/C=C2\COC/C(=C\c3ccc(OCC=C(C)C)cc3)C2=O)cc1 [Compound 40, 3,5-bis((E)-4-((3-methylbut-2-en-1-yl)oxy)benzylidene)tetrahydro-4H-pyran-4-one] | 1.48 | 14.1 ± 0.08 µM | 0.61 | 5.8 ± 0.21 µM | 9.51 µM | 145 to 147 °C | GI50 (HCT116 p53^+/+ cells [4]): 9.53 ± 0.25 µM
